Reference: patent publication US7192746B2, “α-Isomaltosyltransferase, process for producing the same and use thereof” (Kabushiki Kaisha Hayashibara Seibutsu Kagaku Kenkyujo, priority 2000, dated 2007)

Columns and labels:
Test in all cases: Specificity to transferring acceptor
Assay type in all cases: biochemical
Parameters in all cases: key: −: no saccharide transferred product was formed; ±: a saccharide-transferred product formed in an amount of less than one percent to the total sugars; +: a saccharide-transferred product was formed in an amount of over one percent but below 10% to the total sugars; ++: a saccharide-transferred product was formed in an amount of over 10% to the total sugars
[1] = test system: α-isomaltosyl-transferring enzyme from Bacillus globisporus C11; conditions: panose as saccharide donor, 10 units/g substrate, 3.2% (w/v), 30° C., pH 6.0, 24 hours
Protocol: (§1) Saccharides were tested as follows to examine whether they can be used as transferring acceptors for the α-isomaltosyl-transferring enzyme of the present invention. A solution of D-glucose, D-xylose, L-xylose, D-galactose, D-fructose, D-mannose, D-arabinose, D-fucose, L-sorbose, L-rhamnose, methyl-α-glucoside (or methyl-α-glucopyranoside), methyl-β-glucoside (or methyl-β-glucopyranoside), N-acetyl-D-glucosamine, D-ribose, L-ribose, D-psicose, sorbitol, xylitol, mannitol, arabitol, ribitol, erythritol, maltose, maltotriose, maltotetraose, maltopentaose, isomaltose, isomaltotriose, α,α-trehalose, α,β-trehalose, kojibiose, nigerose, cellobiose, gentibiose, isopanose, maltitol, maltotriitol, lactose, sucrose, erlose, isomaltosylglucoside, α-cyclodextrin, β-cyclodextrin, γ-cyclodextrin, or L-ascorbic acid was prepared. To each solution was added panose as a saccharide donor to give an equal concentration, admixed with 10 units/g substrate of a purified specimen of either α-isomaltosyl-transferring enzyme from Bacillus globisporus C9 obtained by the method in Experiment 4, Bacillus globisporus C11 obtained by the method in Experiment 7, Bacillus globisporus N75 obtained by the method in Experiment 11, or Arthrobacter ramosus S1 obtained by the method in Experiment 15, or a partially purified specimen of α-isomaltosyl-transferring enzyme from Arthrobacter globiformis A19 obtained by the method in Experiment 18, followed by adjusting the saccharide concentration to 3.2% (w/v). The mixtures thus obtained were enzymatically reacted at 30° C. and Ph 6.0 for 24 hours. The saccharide composition of the resulting reaction mixtures were analyzed on gas chromatography (abbreviated as “GLC” hereinafter) for monosaccharides and disaccharides as testing saccharides, and on HPLC for tri- or higher-saccharides as testing saccharides to confirm whether these saccharides can be used as transferring acceptors for the above enzymes with an index of the positive or negative formation of a saccharide transferred product. In performing GLC, the following apparatuses and conditions were used: GLC apparatus, “GC-16A” commercialized by Shimadzu Corporation, Tokyo, Japan; column, a stainless-steel column, 3 mm in diameter and 2 m in length, packed with 2% “SILICONE OV-17/[…]”, commercialized by GL Sciences Inc., Tokyo, Japan; carrier gas, nitrogen gas at a flow rate of 40 ml/min under temperature conditions of increasing from 160° C. to 320° C. at an increasing temperature rate of 7.5° C./min; and detection, a hydrogen flame ionization detector. In the case of HPLC analysis, the apparatuses and conditions used were: HPLC apparatus, “CCPD” commercialized by Tosoh Corporation, Tokyo, Japan; column, “ODS-AQ-303” commercialized by YMC Co., Ltd., Tokyo, Japan; eluent, water at a flow rate of 0.5 ml/min; and detection, a differential refractometer.

[2] = test system: α-isomaltosyl-transferring enzyme from Arthrobacter ramosus S1; conditions: panose as saccharide donor, 10 units/g substrate, 3.2% (w/v), 30° C., pH 6.0, 24 hours
Protocol: as §1

[3] = test system: α-isomaltosyl-transferring enzyme from Bacillus globisporus C9; conditions: panose as saccharide donor, 10 units/g substrate, 3.2% (w/v), 30° C., pH 6.0, 24 hours
Protocol: as §1

[4] = test system: α-isomaltosyl-transferring enzyme from Arthrobacter globiformis A19; conditions: partially purified enzyme, panose as saccharide donor, 10 units/g substrate, 3.2% (w/v), 30° C., pH 6.0, 24 hours
Protocol: as §1

[5] = test system: α-isomaltosyl-transferring enzyme from Bacillus globisporus N75; conditions: panose as saccharide donor, 10 units/g substrate, 3.2% (w/v), 30° C., pH 6.0, 24 hours
Protocol: as §1

SMILES	Product of transferring reaction, Enzyme of Strain C11 [1]	Product of transferring reaction, Enzyme of Strain C9 [3]	Product of transferring reaction, Enzyme of Strain N75 [5]	Product of transferring reaction, Enzyme of Strain S1 [2]	Product of transferring reaction, Enzyme of Stain A19 [4]
O=C[C@@H](O)[C@H](O)[C@H](O)CO [D-Arabinose, D-arabinose]	± (a saccharide-transferred product formed in an amount of less than one percent to the total sugars)	± (a saccharide-transferred product formed in an amount of less than one percent to the total sugars)	± (a saccharide-transferred product formed in an amount of less than one percent to the total sugars)	+ (a saccharide-transferred product was formed in an amount of over one percent but below 10% to the total sugars)	± (a saccharide-transferred product formed in an amount of less than one percent to the total sugars)
C[C@@H](O)[C@H](O)[C@H](O)[C@@H](O)C=O [D-Fucose, D-fucose]	± (a saccharide-transferred product formed in an amount of less than one percent to the total sugars)	± (a saccharide-transferred product formed in an amount of less than one percent to the total sugars)	± (a saccharide-transferred product formed in an amount of less than one percent to the total sugars)	+ (a saccharide-transferred product was formed in an amount of over one percent but below 10% to the total sugars)	± (a saccharide-transferred product formed in an amount of less than one percent to the total sugars)
O=C[C@H](O)[C@@H](O)[C@@H](O)[C@H](O)CO [D-Galactose, D-galactose]	−	−	−	+ (a saccharide-transferred product was formed in an amount of over one percent but below 10% to the total sugars)	± (a saccharide-transferred product formed in an amount of less than one percent to the total sugars)
O=C[C@H](O)[C@@H](O)[C@H](O)[C@H](O)CO [D-Glucose, D-glucose]	++ (a saccharide-transferred product was formed in an amount of over 10% to the total sugars)	++ (a saccharide-transferred product was formed in an amount of over 10% to the total sugars)	++ (a saccharide-transferred product was formed in an amount of over 10% to the total sugars)	++ (a saccharide-transferred product was formed in an amount of over 10% to the total sugars)	++ (a saccharide-transferred product was formed in an amount of over 10% to the total sugars)
O=C[C@H](O)[C@H](O)[C@H](O)CO [D-Ribose, D-ribose]	−	−	−	+ (a saccharide-transferred product was formed in an amount of over one percent but below 10% to the total sugars)	± (a saccharide-transferred product formed in an amount of less than one percent to the total sugars)
O=C[C@H](O)[C@@H](O)[C@H](O)CO [D-Xylose, D-xylose]	++ (a saccharide-transferred product was formed in an amount of over 10% to the total sugars)	++ (a saccharide-transferred product was formed in an amount of over 10% to the total sugars)	++ (a saccharide-transferred product was formed in an amount of over 10% to the total sugars)	++ (a saccharide-transferred product was formed in an amount of over 10% to the total sugars)	++ (a saccharide-transferred product was formed in an amount of over 10% to the total sugars)
OC[C@H]1O[C@@](CO)(O[C@H]2O[C@H](CO)[C@@H](O[C@H]3O[C@H](CO)[C@@H](O)[C@H](O)[C@H]3O)[C@H](O)[C@H]2O)[C@@H](O)[C@@H]1O [Erlose, erlose]	+ (a saccharide-transferred product was formed in an amount of over one percent but below 10% to the total sugars)	+ (a saccharide-transferred product was formed in an amount of over one percent but below 10% to the total sugars)	+ (a saccharide-transferred product was formed in an amount of over one percent but below 10% to the total sugars)	+ (a saccharide-transferred product was formed in an amount of over one percent but below 10% to the total sugars)	+ (a saccharide-transferred product was formed in an amount of over one percent but below 10% to the total sugars)

More lines, main results first:

Product of transferring reaction, Enzyme of Strain C11 [1]	Product of transferring reaction, Enzyme of Strain C9 [3]	Product of transferring reaction, Enzyme of Strain N75 [5]	SMILES	Product of transferring reaction, Enzyme of Strain S1 [2]	Product of transferring reaction, Enzyme of Stain A19 [4]
−	−	−	OC[C@@H](O)C(O)[C@H](O)CO [Arabitol, arabitol]	± (a saccharide-transferred product formed in an amount of less than one percent to the total sugars)	−
−	−	−	O=C(CO)[C@@H](O)[C@H](O)[C@H](O)CO [D-Fructose, D-fructose]	+ (a saccharide-transferred product was formed in an amount of over one percent but below 10% to the total sugars)	± (a saccharide-transferred product formed in an amount of less than one percent to the total sugars)
−	−	−	O=C[C@@H](O)[C@@H](O)[C@H](O)[C@H](O)CO [D-Mannose, D-mannose]	−	−
−	−	−	O=C(CO)[C@H](O)[C@H](O)[C@H](O)CO [D-Psicose, D-psicose]	± (a saccharide-transferred product formed in an amount of less than one percent to the total sugars)	± (a saccharide-transferred product formed in an amount of less than one percent to the total sugars)
